Experiment [1] concerns influenza A virus (A/PR/8/34). In words: cytopathic effect (CPE) assay, MDCK cell protection by ATP detection. Format: cell-based. The settings on record: Influenza A virus, mean IC50, MDCK cells, A/PR/8/34, 72 hours, 50% cell protection. On the technique in general: Cytopathic effects are the visible damage that an infection or toxin causes in cultured cells.
Experiment [2] concerns Influenza virus, strain A/PR/8/34. Briefly: microbe, parasite or virus in culture. Format: cell-based. The settings on record: unidentified influenza virus, PR/8, read-out: bDNA EC50 (uM).
The mark [3] stands for this setting: Table 1, read-out: Flu, MDCK IC50.
Where [4] appears, read: Table 2, read-out: Flu MDCK IC50.

Each structure is given as a SMILES string. Read-outs that look alike come from different tables or passages of the source. A value given as a limit tells only on which side of the number the result lay.

With `O=C(N[C@@H]1CCC[C@H](Nc2nc(-c3n[nH]c4ncc(F)cc34)ncc2F)C1)N1CCOCC1` [Compound I-21, N-((1R,3S)-3-((5-fluoro-2-(5-fluoro-1H-pyrazolo[3,4-b]pyridin-3-yl)pyrimidin-4-yl)amino)cyclohexyl)morpholine-4-carboxamide], in experiment [1] (setting [3]), the IC50 (commonly the point on the concentration scale where inhibition reaches its midpoint) is less than 3.3 µM. In addition, the EC50 (usually the concentration needed to bring the measured effect to its halfway point) in experiment [2] is less than 3.3 µM.

In the case of `O=C(O)C[C@H]1C2CCC(CC2)[C@@H]1Nc1nc(-c2n[nH]c3ncc(F)cc23)ncc1F` [Compound I-48, 2-((2S,3S)-3-((5-fluoro-2-(5-fluoro-1H-pyrazolo[3,4-b]pyridin-3-yl)pyrimidin-4-yl)amino)bicyclo[2.2.2]octan-2-yl)acetic acid], the concentration for half-maximal inhibition (IC50) in experiment [1] (setting [4]) was less than 3.3 µM. The EC50 in experiment [2] was less than 3.3 µM.

Regarding `O=C(O)[C@@H]1CCCC2(CCCC2)[C@@H]1Nc1nc(-c2n[nH]c3ncc(F)cc23)ncc1F` [Compound I-38], in experiment [1] (setting [3]), the half-maximal inhibitory concentration (IC50) is less than 3.3 µM. The EC50 in experiment [2] was less than 3.3 µM.

`O=C(N[C@@H]1CCC[C@H](Nc2nc(-c3n[nH]c4ncc(F)cc34)ncc2F)C1)c1csc(Cl)c1` [Compound I-47, 5-chloro-N-((1R,3S)-3-((5-fluoro-2-(5-fluoro-1H-pyrazolo[3,4-b]pyridin-3-yl)pyrimidin-4-yl)amino)cyclohexyl)thiophene-3-carboxamide]: in experiment [1] (setting [4]), the IC50 was less than 3.3 µM. Further, the EC50 in experiment [2] is less than 3.3 µM.

For `C[C@H]1CCN(C(=O)N[C@@H]2CCC[C@H](Nc3nc(-c4n[nH]c5ncccc45)ncc3F)C2)C1` [Compound I-25, (S)—N-((1R,3S)-3-((5-fluoro-2-(1H-pyrazolo[3,4-b]pyridin-3-yl)pyrimidin-4-yl)-amino)cyclohexyl)-3-methylpyrrolidine-1-carboxamide], the IC50 in experiment [1] (setting [3]) is less than 3.3 µM. Also, the concentration giving a half-maximal response (EC50) in experiment [2] is less than 3.3 µM.

As for `O=C(O)[C@H]1C2CCC(CC2)[C@@H]1Nc1nc(-c2n[nH]c3ncc(F)cc23)ncc1F` [Compound I-29], the IC50 in experiment [1] (setting [3]) is less than 3.3 µM. In experiment [2], the EC50 is less than 3.3 µM.

On to `COC(=O)[C@H]1C2CCC(CC2)[C@@H]1Nc1nc(-c2n[nH]c3ncc(F)cc23)ncc1Cl` (racemic) [Compound I-32, (+/−)-trans-(2,3)-methyl 3-((5-chloro-2-(5-fluoro-1H-pyrazolo[3,4-b]pyridin-3-yl)pyrimidin-4-yl)amino)bicyclo[2.2.2]octane-2-carboxylate], for which the IC50 in experiment [1] (setting [3]) was less than 3.3 µM. Also, the EC50 in experiment [2] was less than 3.3 µM.

Values taken from patent US8871774B2, “Inhibitors of influenza viruses replication” (priority 2010, dated 2014).
